From patent US7932270B2 (Cytokinetics, Inc., priority 2006, dated 2011)

Target: T1, chicken gizzard smooth muscle myosin subfragment-1 chemically crosslinked to cardiac or skeletal actin (Gallus gallus, UniProt P10587)
T1 construct: chicken gizzard smooth muscle myosin subfragment-1; from tissue; host or cells: chicken gizzard
Test: Smooth muscle myosin ATPase dose response assay (pyruvate kinase/horseradish peroxidase/pyruvate oxidase-coupled, amplex red fluorescence)
Assay type: biochemical
Settings: read-out: IC50 Arithmetic Mean
Summary of the method: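 ATPase monitored by amplex red fluorescence (ex 480/em 615 nm) via pyruvate oxidase/HRP coupling, pH 7.00, ATP 0.15 mM. Enzyme: smooth muscle S1-actin crosslinked conjugate, amount set empirically by titration. Dose-response fitted with 4-parameter Hill equation for IC50.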

T1 sequence (P02607 2-151): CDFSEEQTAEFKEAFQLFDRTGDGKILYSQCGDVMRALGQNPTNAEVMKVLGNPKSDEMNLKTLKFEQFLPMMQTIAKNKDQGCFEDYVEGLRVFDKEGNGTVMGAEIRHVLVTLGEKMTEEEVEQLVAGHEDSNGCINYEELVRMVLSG
T1 sequence (P10587 84-789): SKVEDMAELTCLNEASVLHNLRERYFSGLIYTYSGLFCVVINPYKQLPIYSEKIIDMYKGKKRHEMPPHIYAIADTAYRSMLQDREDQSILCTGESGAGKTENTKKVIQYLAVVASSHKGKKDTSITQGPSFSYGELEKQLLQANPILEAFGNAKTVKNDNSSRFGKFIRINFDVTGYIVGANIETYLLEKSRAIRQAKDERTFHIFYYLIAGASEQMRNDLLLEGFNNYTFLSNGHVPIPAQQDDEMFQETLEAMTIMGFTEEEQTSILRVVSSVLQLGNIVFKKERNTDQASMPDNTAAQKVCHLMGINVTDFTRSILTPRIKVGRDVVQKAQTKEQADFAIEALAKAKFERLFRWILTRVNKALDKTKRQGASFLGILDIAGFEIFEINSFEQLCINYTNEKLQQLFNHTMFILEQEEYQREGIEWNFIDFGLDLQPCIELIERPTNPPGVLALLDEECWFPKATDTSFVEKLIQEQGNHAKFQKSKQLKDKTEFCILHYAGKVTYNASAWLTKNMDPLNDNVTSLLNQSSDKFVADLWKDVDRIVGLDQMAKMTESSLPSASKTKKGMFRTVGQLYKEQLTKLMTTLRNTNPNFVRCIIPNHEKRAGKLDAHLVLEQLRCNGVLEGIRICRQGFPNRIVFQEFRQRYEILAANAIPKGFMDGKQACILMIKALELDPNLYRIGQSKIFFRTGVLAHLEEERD

| Compound | IC50 [nM] |
| --- | --- |
| O=C(NCc1cc[nH]n1)c1ccc(-c2cn[nH]c2)nc1NCCc1cccc(F)c1 [(2-{[2-(3-fluorophenyl)ethyl]amino}-6-pyrazol-4-yl(3-pyridyl))-N-(pyrazol-3-ylmethyl)carboxamide] | 34 |
| Cn1cc(-c2nc(NCCc3cccc(F)c3)c(C(=O)NC[C@H]3CCN3C(=O)COC(=O)CNC(=O)OC(C)(C)C)cc2F)cn1 [2-((2R)-2-{[(5-fluoro-2-{[2-(3-fluorophenyl)ethyl]amino}-6-(1-methylpyrazol-4-yl)(3-pyridyl))carbonylamino]methyl}azetidinyl)-2-oxoethyl 2-[(tert-butoxy)carbonylamino]acetate] | 191 |
| NC(=O)CNC(=O)c1cc(F)c(-c2cn[nH]c2)nc1NCCc1cccc(F)c1 [N-(carbamoylmethyl)(5-fluoro-2-{[2-(3-fluorophenyl)ethyl]amino}-6-pyrazol-4-yl(3-pyridyl))carboxamide] | 140 |
| O=Cc1ccsc1-c1ccc(C(=O)NCc2cccnc2)c(NCCc2cccc(F)c2)n1 [(2-{[2-(3-fluorophenyl)ethyl]amino}-6-(3-formyl(2-thienyl))(3-pyridyl))-N-(3-pyridylmethyl)carboxamide] | 783 |
| CC(C)(C)OC(=O)N1CCOC(CNC(=O)c2ccc(-c3ccccc3)nc2NCCc2ccccn2)C1 (centres unmarked) [tert-butyl 2-[({6-phenyl-2-[(2-(2-pyridyl)ethyl)amino]-3-pyridyl}carbonylamino)methyl]morpholine-4-carboxylate] | 65100 |
| CC(C)(C)OC(=O)N1CCC[C@@H]1CNC(=O)c1cc(F)c(-c2ccccc2C#N)nc1NCCc1cccc(F)c1 [tert-butyl (2R)-2-{[(6-(2-cyanophenyl)-5-fluoro-2-{[2-(3-fluorophenyl)ethyl]amino}(3-pyridyl))carbonylamino]methyl}pyrrolidinecarboxylate] | 9040 |
| NCc1ncccc1CNC(=O)c1ccc(-c2cn[nH]c2)nc1NCCc1cccc(F)c1 [N-{[2-(aminomethyl)(3-pyridyl)]methyl}(2-{[2-(3-fluorophenyl)ethyl]amino}-6-pyrazol-4-yl(3-pyridyl))carboxamide] | 24 |
| Cc1cc(C)cc(-c2ccc(C(=O)NCc3cccnc3)c(NCCc3ccccn3)n2)c1 [{6-(3,5-dimethylphenyl)-2-[(2-(2-pyridyl)ethyl)amino](3-pyridyl)}-N-(3-pyridylmethyl)carboxamide] | 10100 |
| N#Cc1ccccc1-c1ccc(C(=O)NCc2cccc(CCN)n2)c(NCCc2cccc(F)c2)n1 [N-{[6-(2-aminoethyl)(2-pyridyl)]methyl}(6-(2-cyanophenyl)-2-{[2-(3-fluorophenyl)ethyl]amino}(3-pyridyl))carboxamide] | 11 |
| NCc1cccc(CCNC(=O)c2ccc(-c3ccccc3)nc2NCCc2cccc(F)c2)n1 [N-{2-[6-(aminomethyl)(2-pyridyl)]ethyl}(2-{[2-(3-fluorophenyl)ethyl]amino}-6-phenyl(3-pyridyl))carboxamide] | 252 |
| COC(=O)[C@@H](CNC(=O)c1cc(F)c(-c2cnn(C)c2)nc1NCCc1cccc(F)c1)NC(=O)OC(C)(C)C [methyl (2R)-2-[(tert-butoxy)carbonylamino]-3-[(5-fluoro-2-{[2-(3-fluorophenyl)ethyl]amino}-6-(1-methylpyrazol-4-yl)(3-pyridyl))carbonylamino]propanoate] | 90800 |
| N#Cc1ccccc1-c1ccc(C(=O)N[C@@H](CN)C(=O)O)c(NCCc2cccc(F)c2)n1 [(2S)-3-amino-2-[(6-(2-cyanophenyl)-2-{[2-(3-fluorophenyl)ethyl]amino}(3-pyridyl))carbonylamino]propanoic acid] | 11100 |
| CC(C)(C)OC(=O)NCc1ncccc1CNC(=O)c1ccc(-c2cnn(CCO)c2)nc1NCCc1cccc(F)c1 [N-[(2-{[(tert-butoxy)carbonylamino]methyl}(3-pyridyl))methyl](2-{[2-(3-fluorophenyl)ethyl]amino}-6-[1-(2-hydroxyethyl)pyrazol-4-yl](3-pyridyl))carboxamide] | 15000 |
| N#Cc1ccccc1-c1ccc(C(=O)NC[C@H]2CCC(=O)N2CCCCN)c(NCCc2cccc(F)c2)n1 [N-{[(2R)-1-(4-aminobutyl)-5-oxopyrrolidin-2-yl]methyl}(6-(2-cyanophenyl)-2-{[2-(3-fluorophenyl)ethyl]amino}(3-pyridyl))carboxamide] | 51.7 |
| CN(C)c1ccc(-c2ccc(C(=O)NCc3cccnc3)c(NCCc3ccccn3)n2)cc1 [{6-[4-(dimethylamino)phenyl]-2-[(2-(2-pyridyl)ethyl)amino](3-pyridyl)}-N-(3-pyridylmethyl)carboxamide] | 809 |
| N#Cc1ccccc1-c1ccc(C(=O)NC[C@H]2CCCCN2S(=O)(=O)CCN)c(NCCc2cccc(F)c2)n1 [N-({(2R)-1-[(2-aminoethyl)sulfonyl](2-piperidyl)}methyl)(6-(2-cyanophenyl)-2-{[2-(3-fluorophenyl)ethyl]amino}(3-pyridyl))carboxamide] | 178 |
| O=C(NC[C@H]1CCN1)c1ccc(-c2cn[nH]c2)nc1NCCc1cccc(F)c1 [N-[((2R)azetidin-2-yl)methyl](2-{[2-(3-fluorophenyl)ethyl]amino}-6-pyrazol-4-yl(3-pyridyl))carboxamide] | 5440 |
| Cn1cc(-c2nc(NCCc3cccc(F)c3)c(C(=O)NC[C@H]3CCN3C(=O)CCCN)cc2F)cn1 [N-{[(2R)-1-(4-aminobutanoyl)azetidin-2-yl]methyl}(5-fluoro-2-{[2-(3-fluorophenyl)ethyl]amino}-6-(1-methylpyrazol-4-yl)(3-pyridyl))carboxamide] | 40 |
| Cn1cc(-c2nc(NCCc3cccc(F)c3)c(C(=O)NC[C@H]3CCCN3C(=O)CCCO)cc2F)cn1 [N-{[(2R)-1-(4-hydroxybutanoyl)pyrrolidin-2-yl]methyl}(5-fluoro-2-{[2-(3-fluorophenyl)ethyl]amino}-6-(1-methylpyrazol-4-yl)(3-pyridyl))carboxamide] | 245 |
| CN1CCN(C(=O)CN)C[C@@H]1CNC(=O)c1ccc(-c2ccccc2C#N)nc1NCCc1cccc(F)c1 [N-{[(2S)-4-(2-aminoacetyl)-1-methylpiperazin-2-yl]methyl}(6-(2-cyanophenyl)-2-{[2-(3-fluorophenyl)ethyl]amino}(3-pyridyl))carboxamide] | 6970 |
| O=C(NCC1CCNC1=O)c1ccc(-c2cn[nH]c2)nc1NCCc1cccc(F)c1 (centres unmarked) [(2-{[2-(3-fluorophenyl)ethyl]amino}-6-pyrazol-4-yl(3-pyridyl))-N-[(2-oxopyrrolidin-3-yl)methyl]carboxamide] | 180 |
| NC(=O)CNCC(O)c1ccc(-c2ccccc2)nc1NCCc1cccc(F)c1 (centres unmarked) [2-{[2-(2-{[2-(3-fluorophenyl)ethyl]amino}-6-phenyl(3-pyridyl))-2-hydroxyethyl]amino}acetamide] | 51600 |

Next, values leading:

| IC50 [nM] | Compound |
| --- | --- |
| 17000 | CN1CCN(C(=O)CCN)C[C@@H]1CNC(=O)c1ccc(-c2ccccc2C#N)nc1NCCc1cccc(F)c1 [N-{[(2S)-4-(3-aminopropanoyl)-1-methylpiperazin-2-yl]methyl}(6-(2-cyanophenyl)-2-{[2-(3-fluorophenyl)ethyl]amino}(3-pyridyl))carboxamide] |
| 623 | N#Cc1ccccc1-c1ccc(C(=O)NC[C@H]2CN(CCN)CC(=O)N2)c(NCCc2cccc(F)c2)n1 [N-{[(2S)-4-(2-aminoethyl)-6-oxopiperazin-2-yl]methyl}(6-(2-cyanophenyl)-2-{[2-(3-fluorophenyl)ethyl]amino}(3-pyridyl))carboxamide] |
| 1720 | O=C(NCc1cccs1)c1ccc(-c2ccccc2)nc1NCCc1ccccn1 [{6-phenyl-2-[(2-(2-pyridyl)ethyl)amino](3-pyridyl)}-N-(2-thienylmethyl)carboxamide] |
| 19500 | N#Cc1ccccc1-c1ccc(C(=O)NCCN2C(=O)CC[C@@H]2CN)c(NCCc2cccc(F)c2)n1 [N-{2-[(5R)-5-(aminomethyl)-2-oxopyrrolidinyl]ethyl}(6-(2-cyanophenyl)-2-{[2-(3-fluorophenyl)ethyl]amino}(3-pyridyl))carboxamide] |
| 2440 | N#Cc1ccccc1-c1ccc(C(=O)NCc2cccnc2CNC(=O)c2ccc(-c3ccccc3C#N)nc2NCCc2cccc(F)c2)c(NCCc2cccc(F)c2)n1 [(6-(2-cyanophenyl)-2-{[2-(3-fluorophenyl)ethyl]amino}(3-pyridyl))-N-[(3-{[(6-(2-cyanophenyl)-2-{[2-(3-fluorophenyl)ethyl]amino}(3-pyridyl))carbonylamino]methyl}(2-pyridyl))methyl]carboxamide] |
| 1380 | CN(CCNC(=O)c1ccc(-c2ccccc2C#N)nc1NCCc1cccc(F)c1)S(C)(=O)=O [(6-(2-cyanophenyl)-2-{[2-(3-fluorophenyl)ethyl]amino}(3-pyridyl))-N-{2-[methyl(methylsulfonyl)amino]ethyl}carboxamide] |
| 7810 | O=C(NCc1cccnc1)c1ccc(-c2ccccc2)nc1NCC1(O)CCCCC1 [(2-{[(hydroxycyclohexyl)methyl]amino}-6-phenyl(3-pyridyl))-N-(3-pyridylmethyl)carboxamide] |
| 103 | N#Cc1ccccc1-c1nc(NCCc2cccc(F)c2)c(C(=O)NC[C@H]2CCCN2)cc1F [N-[((2R)pyrrolidin-2-yl)methyl](6-(2-cyanophenyl)-5-fluoro-2-{[2-(3-fluorophenyl)ethyl]amino}(3-pyridyl))carboxamide] |
| 370 | N#Cc1ccccc1-c1ccc(C(=O)NC[C@H]2CCCCN2S(=O)(=O)CCCN)c(NCCc2cccc(F)c2)n1 [N-({(2R)-1-[(3-aminopropyl)sulfonyl](2-piperidyl)}methyl)(6-(2-cyanophenyl)-2-{[2-(3-fluorophenyl)ethyl]amino}(3-pyridyl))carboxamide] |
| 603 | Cn1cc(-c2ccc(C(=O)NCC3CCCCC(=O)N3)c(NCCc3cccc(F)c3)n2)cn1 (centres unmarked) [(2-{[2-(3-fluorophenyl)ethyl]amino}-6-(1-methylpyrazol-4-yl)(3-pyridyl))-N-[(7-oxoazaperhydroepin-2-yl)methyl]carboxamide] |
